Experimental data published in patent publication US8563549B2, “Pyrimidine derivatives used as PI-3 kinase inhibitors” (Novartis AG, priority 2006, dated 2013).

Legend:
[1] = test system: Akt^Ser473 phosphorylation; experiment: In vivo target modulation (PK/PD) in A2780 xenograft tumors (Biological Method 3); parameters: species or system nu/nu mice
Text: A2780 ovarian cancer cells obtained from George Coukos (Fox Chase Cancer Center, University of Pennsylvania, Philadelphia, Pa.) were maintained in DMEM (Invitrogen, Inc.) supplemented with 10% heat-inactivated fetal bovine serum with 1% glutamine. Cells were propagated as recommended by the Dr. Coukos and colleagues. Female nu/nu mice (8-12 weeks old, 20-25 g, Charles River) were used for all in vivo pharmacology studies. The mice were housed and maintained in accordance with state and federal guidelines for the humane treatment and care of laboratory animals and received food and water ad libitum. Cancer cells were harvested from mid-log phase cultures using trypsin-EDTA (Invitrogen, Inc.). […] Tumor volumes were determined by using StudyDirector software.
For PK/PD dose-dependent studies, tumor-bearing mice were given a single oral dose of compound at different concentrations (10, 30, 60 and 100 mg/kg or vehicle) and tumors were resected at 10 hr or 24 hr after dosing. […] Supernatants were taken after centrifugation of tumor lysates at 300×g for 10 min at 4° C. and the protein concentration in each supernatant was determined by BCA (BioRad). […] The density of the positive band on the X-ray film was scanned and the target modulation for each compound was expressed as percentage inhibition by each compound compared to vehicle treatment. […]

A2780 tumor xenograft = experiment: Efficacy study in A2780 ovarian cancer xenograft model (Biological Method 3); assay type: in vivo, nu/nu mice; settings: oral
Text: A2780 ovarian cancer cells obtained from George Coukos (Fox Chase Cancer Center, University of Pennsylvania, Philadelphia, Pa.) were maintained in DMEM (Invitrogen, Inc.) supplemented with 10% heat-inactivated fetal bovine serum with 1% glutamine. Cells were propagated as recommended by the Dr. Coukos and colleagues. Female nu/nu mice (8-12 weeks old, 20-25 g, Charles River) were used for all in vivo pharmacology studies. The mice were housed and maintained in accordance with state and federal guidelines for the humane treatment and care of laboratory animals and received food and water ad libitum. Cancer cells were harvested from mid-log phase cultures using trypsin-EDTA (Invitrogen, Inc.). Five million cells were subcutaneously injected into the right flank of each mouse. Compound treatment was initiated when tumor size reached to 300-400 mm^3 for PK/PD studies and 200-300 mm^3 for efficacy studies. All compound treatment was administrated orally. Tumor volumes were determined by using StudyDirector software.
For efficacy studies, A2780 cancer cells (5×10^6 in 100 μl of DMEM culture medium) were injected subcutaneously into the right flank of each nu/nu mouse. […] Tumor growth and animal body weight was measured twice weekly with daily clinical observation to monitor potential toxicities related to the treatment. […]

SMILES	Duration of inhibition of Akt^Ser473 (>50% inhibition) [1] [h]	Antitumor activity (A2780 tumor xenograft; b.i.d., 30 mg/kg (FIG. 5))	Tumor growth inhibition (A2780 tumor xenograft; daily, 100 mg/kg)
Nc1cc(C(F)(F)F)c(-c2cc(N3CCOCC3)nc(N3CCOCC3)n2)cn1 [Compound 10]	> 10	significant antitumor activity	tumor growth stasis
Nc1ncc(-c2cc(OC3CCOCC3)nc(N3CCOCC3)n2)c(C(F)(F)F)n1 [Compound 66]	> 10		
